Data on 67 compounds can be found in patent publication US10287266B2, “Compounds and compositions for inhibiting the activity of SHP2” (NOVARTIS AG, priority 2015, dated 2019).

As a reminder, the AC50 is the midpoint of the concentration-response curve, whichever way the signal moves.

This assay deals with T1, SHP2 (Homo sapiens, UniProt Q06124).
T1 sequence (Q06124 1-593): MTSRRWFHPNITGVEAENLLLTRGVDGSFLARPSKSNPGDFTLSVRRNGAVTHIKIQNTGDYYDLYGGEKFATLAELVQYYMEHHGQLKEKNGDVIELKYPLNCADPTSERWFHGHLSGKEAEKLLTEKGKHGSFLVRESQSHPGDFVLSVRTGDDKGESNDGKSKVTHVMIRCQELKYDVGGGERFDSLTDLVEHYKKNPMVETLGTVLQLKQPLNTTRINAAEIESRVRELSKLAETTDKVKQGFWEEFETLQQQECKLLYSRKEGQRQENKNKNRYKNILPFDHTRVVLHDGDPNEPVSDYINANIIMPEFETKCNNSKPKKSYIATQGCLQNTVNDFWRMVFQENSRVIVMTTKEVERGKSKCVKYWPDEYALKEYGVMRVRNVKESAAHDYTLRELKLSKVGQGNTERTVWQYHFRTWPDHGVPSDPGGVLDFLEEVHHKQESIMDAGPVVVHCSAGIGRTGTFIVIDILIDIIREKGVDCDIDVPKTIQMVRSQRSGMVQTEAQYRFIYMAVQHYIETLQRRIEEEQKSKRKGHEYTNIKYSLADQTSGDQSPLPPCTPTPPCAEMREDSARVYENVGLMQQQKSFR
Kind of assay: SHP2 Allosteric Inhibition Assay. It counts as biochemical. As to conditions: 0.5 nM SHP2 activated with 0.5 μM peptide IRS1_pY1172(dPEG8)pY1222; surrogate substrate DiFMUP, prompt fluorescence, 25° C. From the text:
SHP2 Allosteric Inhibition Assay
SHP2 is allosterically activated through binding of bis-tyrosyl-phorphorylated peptides to its Src Homology 2 (SH2) domains. The latter activation step leads to the release of the auto-inhibitory interface of SHP2, which in turn renders the SHP2 protein tyrosine phosphatase (PTP) active and available for substrate recognition and reaction catalysis. The catalytic activity of SHP2 was monitored using the surrogate substrate DiFMUP in a prompt fluorescence assay format.
After 30-60 minutes incubation at 25° C., the surrogate substrate DiFMUP (Invitrogen, cat# D6567) was added to the reaction and incubated at 25° C. for 30 minutes. […] The inhibitor dose response curves were analyzed using normalized IC50 regression curve fitting with control based normalization.
For the compound `C[C@@H]1OCC2(CCN(c3cnc(Sc4ccncc4F)cn3)CC2)[C@@H]1N` [Example 113], half-maximal activity (AC50) was put at 34.8 nM. The same measure for `CC1(O)C[C@@H](N)C2(CCN(c3cnc(Sc4ccnc(N)c4Cl)cn3)CC2)C1` (stereo partly shown) [Example 26]: 11.5 nM; for `CC(C)C1(CN)CCN(c2cnc(Sc3ccnc(N)c3Cl)cn2)CC1` [Example 32]: 17.8 nM; for `N[C@@H]1CCCC12CCN(c1cnc(Sc3cccnc3C(F)(F)F)cn1)CC2` [Example 35]: 20.8 nM. The same measure for `C[C@@H]1C[C@@H](N)C2(CCN(c3cnc(Sc4ccnc(N)c4Cl)cn3)CC2)C1` [Example 30]: 17 nM. `N[C@@H]1CCCC12CCN(c1cnc(Sc3ccncc3)cn1)CC2` [Example 89] displayed an AC50 of 107 nM.

For the compound `Nc1cc(Sc2cnc(N3CCC4(CCC[C@H]4N)CC3)cn2)c(Cl)c(Cl)n1` [Example 33], the AC50 was found to be 19.3 nM. For `N[C@@H]1CCCC12CCN(c1cnc(Sc3ccccc3C(F)(F)F)cn1)CC2` [Example 67] the value was 920 nM. Compound `NCC1(CO)CCN(c2cnc(Sc3ccnc(N)c3Cl)cn2)CC1` [Example 50] registered an AC50 of 70.5 nM.

On to `Cc1c(Sc2cnc(N3CCC4(CCC[C@H]4N)CC3)cn2)cccc1C(F)(F)F` [Example 98], for which the AC50 is 293 nM. The same measure for `N[C@@H]1COCC12CCN(c1cnc(Sc3ccncc3C(F)(F)F)cn1)CC2` [Example 49]: 66.1 nM; for `N[C@@H]1CCCC12CCN(c1cnc(Sc3cc[nH]c(=O)c3Cl)cn1)CC2` [Example 105]: 78.9 nM. For `Nc1ccccc1Sc1cnc(N2CCC3(CCC[C@H]3N)CC2)cn1` [Example 68] the value was 968 nM.

`N[C@@H]1[C@H](O)[C@@H](O)CC12CCN(c1cnc(Sc3ccnc(Cl)c3Cl)cn1)CC2` [Example 55] displayed a concentration at half-maximal activity (AC50) of 5.1 nM. The same measure for `Nc1cc(Sc2cnc(N3CCC4(CC3)C[C@H](O)C[C@H]4N)cn2)c(Cl)c(Cl)n1` [Example 15]: 6 nM; for `N[C@@H]1CCCC12CCN(c1cnc(Sc3cccc(F)c3F)cn1)CC2` [Example 75]: 97.7 nM; for `Nc1nccc(Sc2cnc(N3CCC4(CC3)C[C@H](O)C[C@H]4N)cn2)c1Cl` [Example 11]: 4.1 nM. For `C[C@H]1OCC2(CCN(c3cnc(Sc4ccnc(N)c4Cl)cn3)CC2)[C@H]1N` [Example 58] the value was 454 nM; for `CCc1ccccc1Sc1cnc(N2CCC3(CCC[C@@H]3N)CC2)cn1` [Example 125], 101 nM; for `N[C@@H]1CCCC12CCN(c1cnc(Sc3ccccc3Cl)cn1)CC2` [Example 73], 17.3 nM. `C[C@@H]1OCC2(CCN(c3cnc(Sc4cccc(O)c4)cn3)CC2)[C@@H]1N` [Example 118] had an AC50 of 57 nM. The compound `N[C@@H]1COCC12CCN(c1cnc(Sc3cccnc3C(F)(F)F)cn1)CC2` [Example 47] displayed a concentration at half-maximal activity (AC50) of 56 nM. The same measure for `N[C@@H]1CCCC12CCN(c1cnc(Sc3cccc(NC(=O)C4CC4)c3)cn1)CC2` [Example 96]: 77.7 nM; for `N[C@@H]1CCCC12CCN(c1cnc(Sc3ccnc(F)c3Cl)cn1)CC2` [Example 99]: 43.9 nM. For `Nc1nccc(Sc2cnc(N3CCC4(CCCCN4)CC3)cn2)c1Cl` [Example 8, 4-((5-(1,9-diazaspiro[5.5]undecan-9-yl)pyrazin-2-yl)thio)-3-chloropyridin-2-amine] the value was 434 nM; for `Nc1nccc(Sc2cnc(N3CCC4(CC3)C[C@H](F)C[C@H]4N)cn2)c1Cl` [Example 10], 3.9 nM.

`NCC1(c2ccccn2)CCN(c2cnc(Sc3ccnc(N)c3Cl)cn2)CC1` [Example 45] showed an AC50 of 47.1 nM. The same measure for `CC(C)CC1(CN)CCN(c2cnc(Sc3ccnc(N)c3Cl)cn2)CC1` [Example 29]: 15.5 nM; for `CC1(CN)CCN(c2cnc(Sc3ccnc(N)c3Cl)cn2)CC1O` (single isomer, unassigned) [Example 40]: 108 nM; for `N[C@@H]1CCCC12CCN(c1cnc(Sc3cccc(O)c3)cn1)CC2` [Example 78]: 31.8 nM. Turning to `CC1(CN)CCN(c2cnc(Sc3ccnc(N)c3Cl)cn2)CC1` [Example 25], the half-maximal activity concentration (AC50) was 10.7 nM. For `Nc1nccc(Sc2cnc(N3CCC4(CCCN4)CC3)cn2)c1Cl` [Example 48] the value was 63.4 nM. For `N[C@@H]1CCCC12CCN(c1cnc(Sc3ccccc3OC(F)(F)F)cn1)CC2` [Example 65] the value was 30.5 nM; for `Nc1nccc(Sc2cnc(N3CCC4(CC3)C[C@@H](F)C[C@H]4N)cn2)c1Cl` [Example 27], 12.1 nM; for `Nc1nccc(Sc2cnc(N3CCC4(CC3)C[C@H](O)[C@@H](O)[C@H]4N)cn2)c1Cl` [Example 57], 43.8 nM. `C[C@@H]1OCC2(CCN(c3cnc(Sc4ccccc4)cn3)CC2)[C@@H]1N` [Example 108] returned an AC50 of 52 nM.

With `Cc1ccccc1Sc1cnc(N2CCC3(CCC[C@H]3N)CC2)cn1` [Example 121], the half-maximal activity concentration (AC50) was 44.9 nM. The same measure for `Cc1cccc(Sc2cnc(N3CCC4(CCC[C@H]4N)CC3)cn2)c1` [Example 64]: 48.2 nM. Take `CCOc1cccc(Sc2cnc(N3CCC4(CCC[C@H]4N)CC3)cn2)c1` [Example 83]: the AC50 came out at 78.1 nM. The same measure for `N[C@H]1CCCC12CCN(c1cnc(Sc3ccccc3OC(F)(F)F)cn1)CC2` [Example 126]: 130 nM; for `N[C@@H]1CCCC12CCN(c1cnc(Sc3cccnc3)cn1)CC2` [Example 106]: 11300 nM. For `N[C@@H]1CCCC12CCN(c1cnc(Sc3ccncc3F)cn1)CC2` [Example 95] the value was 159 nM. In turn, `N[C@@H]1C[C@H](O)CC12CCN(c1cnc(Sc3ccnc(Cl)c3Cl)cn1)CC2` [Example 20] came in with a concentration at half-maximal activity (AC50) of 8.7 nM. For `CC1CCC2(CCN(c3cnc(Sc4ccnc(N)c4Cl)cn3)CC2)[C@@H]1N` (stereo partly shown) [Example 38] the value was 24.7 nM.

Compound `Nc1cccc(Sc2cnc(N3CCC4(CCC[C@H]4N)CC3)cn2)c1` [Example 79] yielded an AC50 of 31.4 nM. `CCc1ccc(Sc2cnc(N3CCC4(CCC[C@@H]4N)CC3)cn2)cc1` [Example 128] registered a half-maximal activity concentration (AC50) of 287 nM. With `C[C@H]1C[C@@H](N)C2(CCN(c3cnc(Sc4cc(N)nc(Cl)c4Cl)cn3)CC2)C1` [Example 60], half-maximal activity (AC50) was put at 35.1 nM. For `N[C@@H]1CCCC12CCN(c1cnc(Sc3cccc(Cl)c3)cn1)CC2` [Example 77] the value was 279 nM; for `Nc1nccc(Sc2cnc(N3CCC(N)(CO)CC3)cn2)c1Cl` [Example 54], 381 nM; for `COc1ccccc1Sc1cnc(N2CCC3(CCC[C@H]3N)CC2)cn1` [Example 69], 41.8 nM. For `CC(C)(C)c1cccc(Sc2cnc(N3CCC4(CCC[C@@H]4N)CC3)cn2)c1` [Example 127] the value was 44.9 nM; for `COc1cccc(Sc2cnc(N3CCC4(CCC[C@H]4N)CC3)cn2)c1` [Example 74], 37.6 nM.

In the case of `CC1(CN)CCN(c2cnc(Sc3cccc(N)c3Cl)cn2)CC1` [Example 22], the half-maximal activity concentration (AC50) was 10 nM. Turning to `C[C@H]1C[C@@H](N)C2(CCN(c3cnc(Sc4ccnc(N)c4Cl)cn3)CC2)C1` [Example 14], the concentration at half-maximal activity (AC50) is 6 nM. The same measure for `N[C@@H]1CCCC12CCN(c1cnc(Sc3ccc(C(F)(F)F)cc3)cn1)CC2` [Example 87]: 235 nM; for `Nc1cc(Sc2cnc(N3CCC4(CCC[C@H]4N)CC3)cn2)c(Cl)c(N)n1` [Example 37]: 24 nM.

`Cc1cccc(Sc2cnc(N3CCC4(CCC[C@@H]4N)CC3)cn2)c1` [Example 123] had a half-maximal activity concentration (AC50) of 75.8 nM. Consider `CC1(CN)CCN(c2cnc(Sc3cccnc3C(F)(F)F)cn2)CC1` [Example 46], for which the AC50 was 47.6 nM. For `N[C@@H]1CCCC12CCN(c1cnc(Sc3cccc(CN4CCOCC4)c3)cn1)CC2` [Example 94] the value was 39 nM; for `Nc1nccc(Sc2cnc(N3CCC4(CCC(CO)[C@H]4N)CC3)cn2)c1Cl` (stereo partly shown) [Example 133], 14.6 nM; for `N[C@H]1CCCC12CCN(c1cnc(Sc3ccccc3)cn1)CC2` [Example 130], 621 nM. As for `C[C@@H]1OCC2(CCN(c3cnc(Sc4ccnc(N)c4Cl)cn3)CC2)[C@@H]1N` [Example 115], the AC50 came out at 24.7 nM. As for `CCc1cccc(Sc2cnc(N3CCC4(CCC[C@H]4N)CC3)cn2)c1` [Example 129], the concentration at half-maximal activity (AC50) worked out at 526 nM. `Nc1nccc(Sc2cnc(N3CCC4(CC3)CC(F)(F)C[C@H]4N)cn2)c1Cl` [Example 56] showed a half-maximal activity concentration (AC50) of 23.8 nM. For `CO[C@H]1C[C@@H](N)C2(CCN(c3cnc(Sc4ccnc(N)c4Cl)cn3)CC2)C1` [Example 17] the value was 6.2 nM; for `CC1(O)C[C@@H](N)C2(CCN(c3cnc(Sc4ccnc(N)c4Cl)cn3)CC2)C1` (stereo partly shown) [Example 41], 28.2 nM; for `CCCC1(N)CCN(c2cnc(Sc3ccnc(N)c3Cl)cn2)CC1` [Example 42], 31.3 nM.
